Our source for the IC50 values is US20250019382A1, “NOVEL INHIBITORS OF CYCLIN-DEPENDENT KINASES” (Origenis Gmbh, priority 2021, published 2025).

A value given as a limit tells only on which side of the number the result lay.

The target in this test is T1, CDK9/CyclinT1 (Homo sapiens, UniProt P50750).
T1 construct: purchased ProQinase/Reaction Biology, USA #0371-0345-1
T1 sequence (P50750 whole entry): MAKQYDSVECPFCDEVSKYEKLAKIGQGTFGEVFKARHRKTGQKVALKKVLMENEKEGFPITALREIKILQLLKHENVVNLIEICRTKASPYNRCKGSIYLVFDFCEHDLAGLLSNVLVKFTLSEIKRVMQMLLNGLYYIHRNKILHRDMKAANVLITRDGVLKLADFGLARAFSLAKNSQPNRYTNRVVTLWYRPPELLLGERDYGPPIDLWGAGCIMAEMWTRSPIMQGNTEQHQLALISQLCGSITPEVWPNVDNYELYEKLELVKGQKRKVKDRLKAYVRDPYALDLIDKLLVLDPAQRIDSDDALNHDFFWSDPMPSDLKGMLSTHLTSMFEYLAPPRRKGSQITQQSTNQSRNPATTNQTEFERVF
T1 sequence (O60563 whole entry partner): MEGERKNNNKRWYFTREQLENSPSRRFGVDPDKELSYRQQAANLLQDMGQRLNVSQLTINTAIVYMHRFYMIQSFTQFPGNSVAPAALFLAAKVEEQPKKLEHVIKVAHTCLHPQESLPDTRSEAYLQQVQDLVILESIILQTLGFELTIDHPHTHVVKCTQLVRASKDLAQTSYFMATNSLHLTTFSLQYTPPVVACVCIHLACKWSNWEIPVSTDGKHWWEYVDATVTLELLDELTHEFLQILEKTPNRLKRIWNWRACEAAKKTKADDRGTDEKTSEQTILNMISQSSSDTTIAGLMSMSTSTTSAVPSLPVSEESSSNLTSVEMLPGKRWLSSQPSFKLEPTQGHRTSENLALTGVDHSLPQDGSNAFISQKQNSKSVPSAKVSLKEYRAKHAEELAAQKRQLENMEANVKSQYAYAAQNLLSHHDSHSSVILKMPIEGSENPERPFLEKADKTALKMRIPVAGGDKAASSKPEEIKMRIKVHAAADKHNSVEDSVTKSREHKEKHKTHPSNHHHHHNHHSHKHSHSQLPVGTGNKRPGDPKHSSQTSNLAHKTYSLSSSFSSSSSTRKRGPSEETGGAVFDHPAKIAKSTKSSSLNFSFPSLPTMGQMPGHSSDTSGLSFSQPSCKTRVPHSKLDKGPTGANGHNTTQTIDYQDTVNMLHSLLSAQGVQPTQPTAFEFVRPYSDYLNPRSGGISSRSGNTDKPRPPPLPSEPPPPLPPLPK
As to the kind of experiment: CDK9/T1 ADPGlo kinase assay. It is filed as biochemical. The settings on record: CDK9/CyclinT1 6 nM, ATP 10 microM, PDKtide 40 microM, 120 min RT. On the procedure: The testing compound was evaluated in 12 concentrations in a 1:3 dilution series, starting from 5microM as the highest concentration.
In a white 384 microplate (Greiner bio-one, Austria #784904,) with 2 microL of 3-fold concentrated CDK9/CyclinT1 (ProQinase/Reaction Biology, USA #0371-0345-1, LOT.: 012), final concentration (f.c.) 6 nM, in 1×kinase buffer, 2 microL of compound (3× fold concentrated in f.c. 1.66% DMSO/H2O) was added and incubated at Room Temperature (RT) for 10 min. Then 2 microL of Substrate/ATP-Mix (3×PDKtide f.c. 40 microM, SignalChem Biotech, Canada via Biozol, Eching, Germany #P10-58, LOT.: L2230-7 and 3×UltraPure ATP f.c. 10 microM (ADP Glo Kinase assay, Promega GmbH, Germany #V9102)) were added, mixed and incubated for 120 min at RT.
After incubation time, 5 microL of ADP Glo reagent (ready to use, ADP Glo Kinase assay, Promega GmbH, Germany #V9102) were added, mixed and incubated for 40 min at RT.
In the last step, 10 microL of ADP Glo Detection reagent (ready to use, ADP Glo Kinase assay, Promega GmbH, Germany #V9102) were added, mixed and incubated for 30 min at RT.
GloMax Discover GM3000 Reader (Promega GmbH, Germany 9700000249) was used for the readout.
The inhibitor concentration was plotted against the luminescence to determine the IC50 using XLFit 5.5 (IDBS, Guildford) to fit to a sigmoidal dose response curve with a variable slope.
In general terms: In ADP-Glo the light output rises with the ADP produced.
`CCOc1cc(Nc2nc(-c3c(F)cccc3F)nc3ccnn23)ccc1N1CCN(C)CC1` [Example #8, 2-(2,6-difluorophenyl)-N-(3-ethoxy-4-(4-methylpiperazin-1-yl)phenyl)pyrazolo[1,5-a][1,3,5]triazin-4-amine] registered an IC50 of less than 1 µM.

`CCOc1cc(Nc2nc(-c3c(Cl)cccc3Cl)nc3ccnn23)ccc1N1CCN(C)CC1` [Example #12, 2-(2,6-dichlorophenyl)-N-(3-ethoxy-4-(4-methylpiperazin-1-yl)phenyl)pyrazolo[1,5-a][1,3,5]triazin-4-amine] registered an IC50 of less than 1 µM. Take `CCOc1cc(Nc2nc(-c3c(F)cccc3F)nc3ccnn23)ccc1C1=CCN(C)CC1` [Example #14, 2-(2,6-difluorophenyl)-N-(3-ethoxy-4-(1-methyl-1,2,3,6-tetrahydropyridin-4-yl)phenyl)pyrazolo[1,5-a][1,3,5]triazin-4-amine]: the IC50 is less than 1 µM.

Molecule `CCOc1cc(Nc2nc(-c3c(F)cccc3Cl)nc3ccnn23)ccc1C1=CCN(C)CC1` [Example #16, 2-(2-chloro-6-fluorophenyl)-N-(3-ethoxy-4-(1-methyl-1,2,3,6-tetrahydropyridin-4-yl)phenyl)pyrazolo[1,5-a][1,3,5]triazin-4-amine] displayed an IC50 of less than 1 µM.

In turn, `CCOc1cc(Nc2nc(-c3c(F)cccc3Cl)nc3ccnn23)ccc1C1CCN(C)CC1` [Example #17, 2-(2-chloro-6-fluorophenyl)-N-(3-ethoxy-4-(1-methylpiperidin-4-yl)phenyl)pyrazolo[1,5-a][1,3,5]triazin-4-amine] gave an IC50 of less than 1 µM.

In turn, `CCOc1cc(Nc2nc(-c3c(F)cccc3F)nc3ccnn23)ccc1C1CCN(C)CC1` [Example #20, 2-(2,6-difluorophenyl)-N-(3-ethoxy-4-(1-methylpiperidin-4-yl)phenyl)pyrazolo[1,5-a][1,3,5]triazin-4-amine] displayed an IC50 of less than 1 µM. Next, `O=C(NCC(F)(F)F)c1ccc(Nc2nc(-c3c(F)cccc3Cl)nc3ccnn23)cc1` [Example #22, 4-((2-(2-chloro-6-fluorophenyl)pyrazolo[1,5-a][1,3,5]triazin-4-yl)amino)-N-(2,2,2-trifluoroethyl)benzamide]: less than 1 µM; `CC(C)(C)NC(=O)c1ccc(Nc2nc(-c3c(F)cccc3Cl)nc3ccnn23)cc1` [Example #23, N-(tert-butyl)-4-((2-(2-chloro-6-fluorophenyl)pyrazolo[1,5-a][1,3,5]triazin-4-yl)amino)benzamide]: less than 1 µM.

In turn, `CCNC(=O)c1ccc(Nc2nc(-c3c(F)cccc3Cl)nc3ccnn23)cc1` [Example #24, 4-((2-(2-chloro-6-fluorophenyl)pyrazolo[1,5-a][1,3,5]triazin-4-yl)amino)-N-ethylbenzamide] had an IC50 of less than 1 µM. Next, `O=C(NC1CCOCC1)c1ccc(Nc2nc(-c3c(F)cccc3Cl)nc3ccnn23)cc1` [Example #25, 4-((2-(2-chloro-6-fluorophenyl)pyrazolo[1,5-a][1,3,5]triazin-4-yl)amino)-N-(tetrahydro-2H-pyran-4-yl)benzamide]: less than 1 µM; `O=C(NCC(F)(F)F)c1ccc(Nc2nc(-c3c(F)cccc3F)nc3ccnn23)cc1` [Example #26, 4-((2-(2,6-difluorophenyl)pyrazolo[1,5-a][1,3,5]triazin-4-yl)amino)-N-(2,2,2-trifluoroethyl)benzamide]: less than 1 µM.

In the case of `CC(C)(C)NC(=O)c1ccc(Nc2nc(-c3c(F)cccc3F)nc3ccnn23)cc1` [Example #27, N-(tert-butyl)-4-((2-(2,6-difluorophenyl)pyrazolo[1,5-a][1,3,5]triazin-4-yl)amino)benzamide], the IC50 was less than 1 µM.

In turn, `CCNC(=O)c1ccc(Nc2nc(-c3c(F)cccc3F)nc3ccnn23)cc1` [Example #28, 4-((2-(2,6-difluorophenyl)pyrazolo[1,5-a][1,3,5]triazin-4-yl)amino)-N-ethylbenzamide] gave an IC50 of less than 1 µM. Next, `O=C(NC1CCOCC1)c1ccc(Nc2nc(-c3c(F)cccc3F)nc3ccnn23)cc1` [Example #29, 4-((2-(2,6-difluorophenyl)pyrazolo[1,5-a][1,3,5]triazin-4-yl)amino)-N-(tetrahydro-2H-pyran-4-yl)benzamide]: less than 1 µM.

`CCOc1cc(Nc2nc(-c3c(F)cccc3Cl)nc3ccnn23)ccc1N1CCN(C)CC1` [Example #32, 2-(2-chloro-6-fluorophenyl)-N-(3-ethoxy-4-(4-methylpiperazin-1-yl)phenyl)pyrazolo[1,5-a][1,3,5]triazin-4-amine] registered an IC50 of less than 1 µM.

The molecule `CCOc1cc(Nc2nc(-c3c(F)cccc3Cl)nc3ccnn23)ccc1C1=CCN(C2CC2)CC1` [Example #34, 2-(2-chloro-6-fluorophenyl)-N-(4-(1-cyclopropyl-1,2,3,6-tetrahydropyridin-4-yl)-3-ethoxyphenyl)pyrazolo[1,5-a][1,3,5]triazin-4-amine] showed an IC50 of less than 1 µM. `CC(C)(C#N)n1cc(Nc2nc(-c3c(F)cccc3Cl)nc3ccnn23)cn1` [Example #36, 2-(4-((2-(2-chloro-6-fluorophenyl)pyrazolo[1,5-a][1,3,5]triazin-4-yl)amino)-1H-pyrazol-1-yl)-2-methylpropanenitrile]: the IC50 was less than 1 µM. Under `Fc1cccc(F)c1-c1nc(Nc2ccc(N3CCOCC3)cc2)n2nccc2n1` [Example #37, 2-(2,6-difluorophenyl)-N-(4-morpholinophenyl)pyrazolo[1,5-a][1,3,5]triazin-4-amine] stands less than 1 µM; under `CN1CCN(c2ccc(Nc3nc(-c4c(F)cccc4F)nc4ccnn34)cc2)CC1` [Example #38, 2-(2,6-difluorophenyl)-N-(4-(4-methylpiperazin-1-yl)phenyl)pyrazolo[1,5-a][1,3,5]triazin-4-amine], less than 1 µM. Under `CC(=O)N1CCN(c2ccc(Nc3nc(-c4c(F)cccc4F)nc4ccnn34)cc2)CC1` [Example #39, 1-(4-(4-((2-(2,6-difluorophenyl)pyrazolo[1,5-a][1,3,5]triazin-4-yl)amino)phenyl)piperazin-1-yl)ethan-1-one] stands less than 1 µM; under `N#Cc1cc(Nc2nc(-c3c(F)cccc3F)nc3ccnn23)ccc1N1CCOCC1` [Example #42, 5-((2-(2,6-difluorophenyl)pyrazolo[1,5-a][1,3,5]triazin-4-yl)amino)-2-morpholinobenzonitrile], less than 1 µM; under `Fc1cccc(F)c1-c1nc(Nc2ccc(N3CCC(N4CCOCC4)CC3)cc2)n2nccc2n1` [Example #43, 2-(2,6-difluorophenyl)-N-(4-(4-morpholinopiperidin-1-yl)phenyl)pyrazolo[1,5-a][1,3,5]triazin-4-amine], less than 1 µM. Under `CC(C)(C)N1CCN(c2ccc(Nc3nc(-c4c(F)cccc4F)nc4ccnn34)cc2)CC1` [Example #45, N-(4-(4-(tert-butyl)piperazin-1-yl)phenyl)-2-(2,6-difluorophenyl)pyrazolo[1,5-a][1,3,5]triazin-4-amine] stands less than 0.2 µM. In the case of `CN1CCN(C2CCN(c3ccc(Nc4nc(-c5c(F)cccc5F)nc5ccnn45)cc3)CC2)CC1` [Example #46, 2-(2,6-difluorophenyl)-N-(4-(4-(4-methylpiperazin-1-yl)piperidin-1-yl)phenyl)pyrazolo[1,5-a][1,3,5]triazin-4-amine], the IC50 was less than 1 µM. On to `CC(C)(C)N1CCN(c2ccc(Nc3nc(-c4ccccc4F)nc4ccnn34)cc2)CC1` [Example #54, N-(4-(4-(tert-butyl)piperazin-1-yl)phenyl)-2-(2-fluorophenyl)pyrazolo[1,5-a][1,3,5]triazin-4-amine], for which the IC50 was less than 1 µM. Turning to `CN1CCN(C2CCN(c3ccc(Nc4nc(-c5ccccc5F)nc5ccnn45)cc3)CC2)CC1` [Example #59, 2-(2-fluorophenyl)-N-(4-(4-(4-methylpiperazin-1-yl)piperidin-1-yl)phenyl)pyrazolo[1,5-a][1,3,5]triazin-4-amine], the IC50 was less than 1 µM. Consider `COc1cc(Nc2nc(-c3c(F)cccc3F)nc3ccnn23)ccc1N1CCC(N2CCN(C)CC2)CC1` [Example #62, 2-(2,6-difluorophenyl)-N-(3-methoxy-4-(4-(4-methylpiperazin-1-yl)piperidin-1-yl)phenyl)pyrazolo[1,5-a][1,3,5]triazin-4-amine], for which the IC50 was less than 1 µM.

`COc1ccc(Nc2nc(-c3c(F)cccc3F)nc3ccnn23)cc1OC` [Example #65, 2-(2,6-difluorophenyl)-N-(3,4-dimethoxyphenyl)pyrazolo[1,5-a][1,3,5]triazin-4-amine] came in with an IC50 of less than 1 µM. Under `CN1CCC(N2CCC(n3cc(Nc4nc(-c5c(F)cccc5F)nc5ccnn45)cn3)CC2)CC1` [Example #66, 2-(2,6-difluorophenyl)-N-(1-(1′-methyl-[1,4′-bipiperidin]-4-yl)-1H-pyrazol-4-yl)pyrazolo[1,5-a][1,3,5]triazin-4-amine] stands less than 0.2 µM. As to `Fc1cccc(F)c1-c1nc(Nc2cnn(C3CCN(C4CCOCC4)CC3)c2)n2nccc2n1` [Example #67, 2-(2,6-difluorophenyl)-N-(1-(1-(tetrahydro-2H-pyran-4-yl)piperidin-4-yl)-1H-pyrazol-4-yl)pyrazolo[1,5-a][1,3,5]triazin-4-amine], the IC50 is less than 0.2 µM.

One may read the IC50 as the midpoint of a concentration-inhibition curve. Higher therefore signals lower potency.
